Test results published in patent publication US6624119B1, “3-[Benz(ox/thi)azol-7-yl]-1h-pyrimidine-2,4-diones” (BASF Aktiengesellschaft, priority 1998, dated 2003).

What was measured:
Assay in all cases: greenhouse herbicidal test, post-emergence
Format in all cases: in vivo
Solanum nigrum = Solanum nigrum (black nightshade), application rates 15.6 or 7.8 kg/ha a.s., 2 to 4 weeks
From the text: (§1) The growing containers used were plastic pots containing loamy sand with approximately 3.0% of humus as the substrate. The seeds of the test plants were sown separately for each species.
(§2) For the post-emergence treatment, the test plants were first grown to a plant height of 3 to 15 cm, depending on the growth habit, and only then treated with the active ingredients which had been suspended or emulsified in water. The test plants were either sown directly and grown in the same containers or first grown separately as seedlings and transplanted into the test containers a few days prior to treatment. The rate of application for the post-emergence treatment was only 15.6 or […] of a.s. (active substance).
(§3) Depending on the species, the plants were kept at 10-25° C. or 20-35° C. The test period extended over 2 to 4 weeks. During this time, the plants were tended, and their response to the individual treatments was evaluated.
(§4) Evaluation was carried out using a scale from 0 to 100. 100 means no emergence of the plants or complete destruction of at least the aerial parts, and 0 means no damage or normal course of growth.
(§5) The plants used in the greenhouse experiments belonged to the following species: […]

Chenopodium album = Chenopodium album (lambsquarters), application rates 15.6 or 7.8 kg/ha a.s., 2 to 4 weeks
From the text: as §1, §2, §3, §4, §5

Abutilon theophrasti = Abutilon theophrasti (velvet leaf), application rates 15.6 or 7.8 kg/ha a.s., 2 to 4 weeks
From the text: as §1, §2, §3, §4, §5

Amaranthus retroflexus = Amaranthus retroflexus (redroot pigweed), application rates 15.6 or 7.8 kg/ha a.s., 2 to 4 weeks
From the text: as §1, §2, §3, §4, §5

Measured: efficacy (complete destruction; scale 0 to 100)

Cn1c(C(F)(F)F)cc(=O)n(-c2c(F)cc(Cl)c3nc(C4CCCC4)oc23)c1=O [Ia.3, 3-[4-Chloro-2-cyclopentyl-6-fluorobenzoxazol-7-yl]-1-methyl-6-trifluoromethyl-2,4-(1H,3H)-pyrimidinedione]
100%: all assays above
